Key:
[1] = system: male subjects having a clinical diagnosis of chronic pelvic pain syndrome; test: treatment of male subjects with chronic pelvic pain syndrome with 600-900 mg per day; type: in vivo, human; conditions: 600, 700, 800 or 900 mg per day orally, up to sixteen weeks or more
Method: Utilizing capsules prepared as above and 100 mg capsules available from ALZA Corporation as appropriate to meet the daily dosing requirements, male subjects having a clinical diagnosis of chronic pelvic pain syndrome are treated with 600, 700, 800 or 900 mg per day of pentosan polysulfate sodium for up to sixteen weeks, generally 1-2 weeks, 2-4 weeks, 4-8 weeks, 8-16 weeks or up to 32 weeks or more. The daily doses may be administered in multiple doses, generally three times per day with each dose containing equal amounts of pentosan polysulfate. As examples, the daily 600 mg dose may be administered as two 300 mg capsules of pentosan polysulfate as described herein in the morning and evening, or as three 200 mg doses (two 100 mg capsules) in the morning, at mid-day and in the evening. Typically, administration is in the non-fed mode with subjects receiving the doses either at least one hour before a meal or at least two hours after a meal. Daily 900 mg doses may be administered as three 300 mg capsules in the morning, at mid-day and in the evening. As with the 600 mg daily dose, administration typically is in the non-fed mode with subjects receiving the doses either at least one hour before a meal or at least two hours after a meal. […]

[2] = system: male subjects exhibiting signs and symptoms of Category III prostatitis; conditions: 200 mg bid, cited from earlier work
[3] = system: terminally ill cancer patients; conditions: approximately 900-2100 mg/day for up to 8 months; twenty-one patients; cited from earlier work
[4] = cited from earlier work

pentosan polysulfate
relief of intensity and frequency of symptoms (pain, frequency and urgency of urination, nocturia, ejaculatory pain, impotence) [1]: can experience relief
median measurement score ([2]; after 3 months of treatment, compared with placebo): lowered to a greater extent than the placebo group
difference between the treatment group and the placebo group ([2]; after 3 months of treatment): no evident difference
symptoms of myalgia/arthralgia ([2]; treatment group): some improvement
patients who experienced some degree of bleeding from the rectum or digestive tract [3]: Twenty
oral bioavailability [4]: approximately 3%
